Kd data for three molecules are collected here from publication PMC2631241 (Journal of combinatorial chemistry, 2008).

Broadly, the Kd is the free concentration of one partner at which half of the binding sites on the other are occupied at equilibrium, for simple one-to-one binding.

For the assay, the target named is human serum albumin (HSA) (Homo sapiens, UniProt P02768). The experiment in a line: 1D 1H NMR line-broadening titration of ligand with HSA.
Sequence of human serum albumin (HSA) (P02768 25-609): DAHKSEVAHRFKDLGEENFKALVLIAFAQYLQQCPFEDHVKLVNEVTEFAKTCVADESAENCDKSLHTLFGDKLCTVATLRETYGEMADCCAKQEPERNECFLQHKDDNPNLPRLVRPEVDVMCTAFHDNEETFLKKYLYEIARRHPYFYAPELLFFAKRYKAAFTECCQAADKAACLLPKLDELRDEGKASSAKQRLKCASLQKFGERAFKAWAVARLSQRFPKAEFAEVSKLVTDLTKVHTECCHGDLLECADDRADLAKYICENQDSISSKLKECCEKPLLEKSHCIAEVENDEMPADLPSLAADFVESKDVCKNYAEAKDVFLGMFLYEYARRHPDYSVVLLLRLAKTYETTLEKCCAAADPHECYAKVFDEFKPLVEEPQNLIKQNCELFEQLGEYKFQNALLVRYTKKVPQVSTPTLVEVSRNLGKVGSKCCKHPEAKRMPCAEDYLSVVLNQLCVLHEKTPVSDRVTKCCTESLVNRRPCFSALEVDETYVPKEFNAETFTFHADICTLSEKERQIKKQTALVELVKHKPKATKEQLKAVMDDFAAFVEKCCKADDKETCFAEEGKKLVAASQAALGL
Regarding `O=C1NC(=O)C(c2ccccc2)(c2ccccc2)N1` [Phenytoin, phenytoin], the Kd came to 132 ± 12.5 µM.
Molecule `CCOC(=O)C(C)(C)Oc1ccc(Cl)cc1` [Clofibrate, clofibrate] had a Kd of 1.7 ± 3.4 µM.
`O=S1(=O)OC(c2ccc(O)cc2)(c2ccc(O)cc2)c2ccccc21` [Phenol Red, phenol red] came in with a Kd of 36.8 ± 6.5 µM.
